The values that follow come from patent US9453026B2, “ACC inhibitors and uses thereof” (Gilead Apollo, Inc., priority 2011, dated 2016).

A value given as a limit tells only on which side of the number the result lay.

Chain of ACC2 (O00763 whole entry, species assumed): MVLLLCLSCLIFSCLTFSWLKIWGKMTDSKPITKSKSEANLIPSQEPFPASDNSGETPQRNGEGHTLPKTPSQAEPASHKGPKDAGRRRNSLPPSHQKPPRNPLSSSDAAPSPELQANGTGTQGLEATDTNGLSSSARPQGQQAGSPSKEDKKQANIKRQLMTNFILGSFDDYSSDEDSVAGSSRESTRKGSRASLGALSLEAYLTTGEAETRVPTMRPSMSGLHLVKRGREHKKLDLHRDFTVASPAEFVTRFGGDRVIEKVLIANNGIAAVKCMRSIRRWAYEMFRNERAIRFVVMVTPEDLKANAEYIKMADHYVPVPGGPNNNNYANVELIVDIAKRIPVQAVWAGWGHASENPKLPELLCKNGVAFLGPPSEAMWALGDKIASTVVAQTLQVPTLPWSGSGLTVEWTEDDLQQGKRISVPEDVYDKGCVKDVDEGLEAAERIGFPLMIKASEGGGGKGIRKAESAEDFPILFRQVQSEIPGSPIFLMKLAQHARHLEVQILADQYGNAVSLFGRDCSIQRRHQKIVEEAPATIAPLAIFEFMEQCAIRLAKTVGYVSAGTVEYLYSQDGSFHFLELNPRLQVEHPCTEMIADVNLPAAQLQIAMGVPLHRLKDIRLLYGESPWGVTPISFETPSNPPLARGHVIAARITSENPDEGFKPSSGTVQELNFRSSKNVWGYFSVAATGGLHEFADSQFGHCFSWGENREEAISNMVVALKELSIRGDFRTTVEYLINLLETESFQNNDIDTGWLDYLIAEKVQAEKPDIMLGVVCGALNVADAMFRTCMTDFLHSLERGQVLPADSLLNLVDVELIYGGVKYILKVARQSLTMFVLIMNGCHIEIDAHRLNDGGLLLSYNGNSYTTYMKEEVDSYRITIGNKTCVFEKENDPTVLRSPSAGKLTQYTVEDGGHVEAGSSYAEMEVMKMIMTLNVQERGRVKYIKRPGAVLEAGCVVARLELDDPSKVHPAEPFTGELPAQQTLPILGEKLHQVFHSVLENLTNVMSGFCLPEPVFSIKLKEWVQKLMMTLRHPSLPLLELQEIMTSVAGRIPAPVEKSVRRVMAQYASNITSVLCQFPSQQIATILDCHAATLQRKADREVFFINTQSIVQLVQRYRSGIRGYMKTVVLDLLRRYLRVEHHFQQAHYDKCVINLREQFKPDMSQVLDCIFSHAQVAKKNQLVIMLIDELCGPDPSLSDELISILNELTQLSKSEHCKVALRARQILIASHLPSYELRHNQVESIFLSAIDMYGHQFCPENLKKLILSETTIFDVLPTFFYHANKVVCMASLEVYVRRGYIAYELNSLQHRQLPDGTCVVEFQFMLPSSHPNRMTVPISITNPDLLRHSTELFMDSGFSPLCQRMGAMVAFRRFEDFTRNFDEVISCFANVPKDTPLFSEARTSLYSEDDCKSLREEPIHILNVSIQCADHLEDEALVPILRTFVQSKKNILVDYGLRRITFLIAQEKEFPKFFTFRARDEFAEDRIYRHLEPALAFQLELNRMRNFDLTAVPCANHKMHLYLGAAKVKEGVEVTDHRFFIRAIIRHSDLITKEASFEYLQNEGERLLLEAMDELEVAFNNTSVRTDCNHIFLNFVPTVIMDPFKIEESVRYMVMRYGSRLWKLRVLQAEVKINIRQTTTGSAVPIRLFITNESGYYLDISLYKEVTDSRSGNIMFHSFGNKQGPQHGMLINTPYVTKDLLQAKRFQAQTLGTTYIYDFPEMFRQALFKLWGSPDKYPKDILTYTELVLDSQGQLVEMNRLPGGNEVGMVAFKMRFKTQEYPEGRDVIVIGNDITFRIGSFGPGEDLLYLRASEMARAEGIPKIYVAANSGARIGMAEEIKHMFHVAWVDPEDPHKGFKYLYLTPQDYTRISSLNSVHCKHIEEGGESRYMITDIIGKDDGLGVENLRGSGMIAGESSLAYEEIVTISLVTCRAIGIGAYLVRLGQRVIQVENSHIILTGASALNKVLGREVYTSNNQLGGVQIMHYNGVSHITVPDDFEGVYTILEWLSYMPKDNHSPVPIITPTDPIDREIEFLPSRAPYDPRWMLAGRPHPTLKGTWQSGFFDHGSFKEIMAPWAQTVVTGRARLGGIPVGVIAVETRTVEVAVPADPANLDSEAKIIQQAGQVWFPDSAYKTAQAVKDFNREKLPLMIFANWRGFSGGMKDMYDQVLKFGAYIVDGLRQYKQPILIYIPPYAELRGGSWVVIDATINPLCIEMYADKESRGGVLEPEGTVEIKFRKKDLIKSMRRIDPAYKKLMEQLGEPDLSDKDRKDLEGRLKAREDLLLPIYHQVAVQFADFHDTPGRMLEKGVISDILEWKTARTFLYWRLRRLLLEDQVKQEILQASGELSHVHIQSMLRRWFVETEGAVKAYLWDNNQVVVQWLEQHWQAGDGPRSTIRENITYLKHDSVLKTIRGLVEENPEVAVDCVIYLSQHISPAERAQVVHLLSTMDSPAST

This assay addresses ACC2 (Homo sapiens, UniProt O00763). Nature of the assay: In vitro ACC2 inhibition assay (ADP-Glo). In kind it is biochemical. To be noted: read-out: ACC2. The procedure:
An exemplary procedure for the in vitro ACC inhibition assay, which can be used to determine the inhibitory action of compounds of the invention toward either ACC1 or ACC2, follows. The ADP-Glo™ Kinase Assay kit from Promega was used. The ADP-Glo™ Kinase Assay is a luminescent ADP detection assay to measure enzymatic activity by quantifying the amount of ADP produced during an enzyme reaction. The assay is performed in two steps; first, after the enzyme reaction, an equal volume of ADP-Glo™ Reagent is added to terminate the reaction and deplete the remaining ATP. Second, the Kinase Detection Reagent is added to simultaneously convert ADP to ATP and allow the newly synthesized ATP to be measured using a luciferase/luciferin reaction. Luminescence can be correlated to ADP concentrations by using an ATP-to-ADP conversion curve. The detailed procedure is as follows. 50 μL of the compound being tested (600 uM in DMSO) was added to a 384-well dilution plate. The compound was diluted 1:3 in succession in DMSO for each row for 11 wells. 0.5 μL ACC2 working solution was added to 384-well white Optiplate assay plate. 0.5 μL diluted compound solution in each column from step 2 to assay plate, each row containing 2 replicates. […] The plates were incubated at room temperature for 15 minutes. 5 μL substrate working solution was added to each well to initiate reaction. […] Plates were incubated at room temperature for 60 minutes. 10 μL ADP glo reagent was added. Plates were incubated at room temperature for 40 minutes. 20 μL kinase detection reagent was added.
Data for each concentration, as well as the positive and negative controls were averaged, and the standard deviation calculated. Percent inhibition was calculated by the formula: 100× (average negative control−compound)/(average negative control−average positive control). The IC50 for each compound was calculated by fitting the data with a non-linear regression equation: Y=Bottom+(Top-Bottom)/(1+10^((Log IC50−X)*HillSlope)), where X is the log of compound concentration and Y is percent inhibition.
The compound numbers correspond to the compound numbers in Table 1.
Background: ADP-Glo turns the ADP formed in a reaction into a luminescent signal.
Consider `CCOC(=O)c1sc2c(c1C)c(=O)n(CC(=O)O)c(=O)n2Cc1ccc2[nH]ccc2c1` [I-90, 2-[6-(ethoxycarbonyl)-1-(1H-indol-5-ylmethyl)-5-methyl-2,4-dioxo-1H,2H,3H,4H-thieno[2,3-d]pyrimidin-3-yl]acetic acid], for which the IC50 is 20 to 50 µM. The result for `COc1ccccc1[C@H](Cn1c(=O)n(C(C)(C)C(=O)O)c(=O)c2c(C)c(-c3ncco3)sc21)OC1COC1` [I-261, (R)-2-(1-(2-(2-methoxyphenyl)-2-(oxetan-3-yloxy)ethyl)-5-methyl-6-(oxazol-2-yl)-2,4-dioxo-1,2-dihydrothieno[2,3-d]pyrimidin-3(4H)-yl)-2-methylpropanoic acid] reads less than 5 µM; that for `O=C(O)Cn1c(=O)c2c3c(sc2n(CCc2ccccc2)c1=O)CCCC3` [I-3], 20 to 50 µM; that for `CCOC(=O)c1sc2c(c1C(F)(F)F)c(=O)n(CC(=O)O)c(=O)n2CCc1ccccc1` [I-94, 2-[6-(ethoxycarbonyl)-2,4-dioxo-1-(2-phenylethyl)-5-(trifluoromethyl)-1H,2H,3H,4H-thieno[2,3-d]pyrimidin-3-yl]acetic acid], less than 5 µM. Turning to `CCOC(=O)c1sc2c(c1C)c(=O)n(CCO)c(=O)n2CCc1nc2ccccc2s1` [I-44], the IC50 was greater than 50 µM. For the compound `CCOC(=O)c1sc2c(c1C)c(=O)n(CCO)c(=O)n2CCc1c(F)cccc1F` [I-24], the IC50 is greater than 50 µM.

Consider `Cc1c(-c2ncco2)sc2c1c(=O)n(C(C)(C)C(=O)O)c(=O)n2C[C@H](OCC(C)(C)O)c1ccccc1` [I-175, 2-[1-[(2R)-2-(2-hydroxy-2-methylpropoxy)-2-phenylethyl]-5-methyl-6-(1,3-oxazol-2-yl)-2,4-dioxo-1H,2H,3H,4H-thieno[2,3-d]pyrimidin-3-yl]-2-methylpropanoic acid], for which the IC50 was less than 1 µM. Take `Cc1c(-c2ncco2)sc2c1c(=O)n(C(C)(C)C(=O)O)c(=O)n2C[C@H](OC(=O)N1CC(O)C1)c1ccccc1` [I-230, 2-[1-[(2R)-2-[(3-hydroxyazetidin-1-yl)carbonyloxy]-2-phenylethyl]-5-methyl-6-(1,3-oxazol-2-yl)-2,4-dioxo-1H,2H,3H,4H-thieno[2,3-d]pyrimidin-3-yl]-2-methylpropanoic acid]: the IC50 is less than 5 µM. Turning to `Cc1c(-c2ncco2)sc2c1c(=O)n(C(C)(C)C(=O)O)c(=O)n2C[C@H](Oc1ccc(F)cc1)c1ccccc1` [I-149, (R)-2-(1-(2-(4-fluorophenoxy)-2-phenylethyl)-5-methyl-6-(oxazol-2-yl)-2,4-dioxo-1,2-dihydrothieno[2,3-d]pyrimidin-3(4H)-yl)-2-methylpropanoic acid], the IC50 was less than 1 µM. For `CCOC(=O)c1sc2c(c1C)c(=O)n(C(C)(C)C(=O)O)c(=O)n2CCc1ccccc1O` [I-99, 2-[6-(ethoxycarbonyl)-1-[2-(2-hydroxyphenyl)ethyl]-5-methyl-2,4-dioxo-1H,2H,3H,4H-thieno[2,3-d]pyrimidin-3-yl]-2-methylpropanoic acid] the value was less than 5 µM; for `COCc1ccccc1[C@H](Cn1c(=O)n(C(C)(C)C(=O)O)c(=O)c2c(C)c(-c3ncco3)sc21)OC1CCOCC1` [I-293, 2-[1-[(2R)-2-[2-(methoxymethyl)phenyl]-2-(oxan-4-yloxy)ethyl]-5-methyl-6-(1,3-oxazol-2-yl)-2,4-dioxo-1H,2H,3H,4H-thieno[2,3-d]pyrimidin-3-yl]-2-methylpropanoic acid], less than 0.1 µM.

Take `O=C(O)Cn1c(=O)c2ccsc2n(CCc2ccccc2)c1=O` [I-65, 2-[2,4-dioxo-1-(2-phenylethyl)-1H,2H,3H,4H-thieno[2,3-d]pyrimidin-3-yl]acetic acid]: the IC50 was greater than 50 µM. For `CCOC(=O)c1sc2c(c1C)c(=O)n(CCO)c(=O)n2Cc1ccc2ccn(C)c2c1` [I-64] the value was greater than 50 µM; for `Cc1c(-c2ncco2)sc2c1c(=O)n(C(C)(C)C(=O)O)c(=O)n2C[C@@H](Oc1ccccc1)c1ccccc1` [I-144, 2-methyl-2-[5-methyl-6-(1,3-oxazol-2-yl)-2,4-dioxo-1-[(2S)-2-phenoxy-2-phenylethyl]-1H,2H,3H,4H-thieno[2,3-d]pyrimidin-3-yl]propanoic acid], 5 to 20 µM. Turning to `Cc1c(-c2ncco2)sc2c1c(=O)n(C(C)(C)C(=O)O)c(=O)n2C[C@H](O[C@@H]1CCOC1)c1ccccc1` [I-186, 2-methyl-2-[5-methyl-6-(1,3-oxazol-2-yl)-2,4-dioxo-1-[(2R)-2-[(3R)-oxolan-3-yloxy]-2-phenylethyl]-1H,2H,3H,4H-thieno[2,3-d]pyrimidin-3-yl]propanoic acid], the IC50 was less than 1 µM. The result for `CCOC(=O)c1sc2c(c1C)c(=O)n(C(C)C(=O)O)c(=O)n2CCc1ccccc1` (centres unmarked) [I-56, 2-[6-(ethoxycarbonyl)-5-methyl-2,4-dioxo-1-(2-phenylethyl)-1H,2H,3H,4H-thieno[2,3-d]pyrimidin-3-yl]propanoic acid] reads less than 5 µM; that for `CCOC(=O)c1sc2c(c1C)c(=O)n(CCO)c(=O)n2Cc1ccc2ccccc2c1` [I-16, ethyl 3-(2-hydroxyethyl)-5-methyl-1-(naphthalen-2-ylmethyl)-2,4-dioxo-1H,2H,3H,4H-thieno[2,3-d]pyrimidine-6-carboxylate], greater than 50 µM; that for `CCCc1ccccc1CCn1c(=O)n(C(C)(C)C(N)=O)c(=O)c2c(C)c(-c3ncco3)sc21` [I-151, 2-methyl-2-[5-methyl-6-(1,3-oxazol-2-yl)-2,4-dioxo-1-[2-(2-propylphenyl)ethyl]-1H,2H,3H,4H-thieno[2,3-d]pyrimidin-3-yl]propanamide], less than 1 µM. Take `CCOC(=O)c1sc2c(c1C)c(=O)n(C(C)(C)C(=O)O)c(=O)n2C[C@@H](OC)c1ccccc1` [I-111, 2-[6-(ethoxycarbonyl)-1-[(2S)-2-methoxy-2-phenylethyl]-5-methyl-2,4-dioxo-1H,2H,3H,4H-thieno[2,3-d]pyrimidin-3-yl]-2-methylpropanoic acid]: the IC50 was in the range of 5 to 20 µM.

As for `Cc1c(-c2ncco2)sc2c1c(=O)n(C(C)(C)C(=O)O)c(=O)n2C[C@@H](OC1CCOCC1)c1ccccc1Cl` [I-251, 2-[1-[(2S)-2-(2-chlorophenyl)-2-(oxan-4-yloxy)ethyl]-5-methyl-6-(1,3-oxazol-2-yl)-2,4-dioxo-1H,2H,3H,4H-thieno[2,3-d]pyrimidin-3-yl]-2-methylpropanoic acid], the IC50 was less than 5 µM. For `CCOC(=O)c1sc2c(c1C)c(=O)n(CCCCO)c(=O)n2CCc1ccccc1` [I-34, ethyl 3-(4-hydroxybutyl)-5-methyl-2,4-dioxo-1-(2-phenylethyl)-1H,2H,3H,4H-thieno[2,3-d]pyrimidine-6-carboxylate] the value was 5 to 20 µM; for `CCOC(=O)c1sc2c(c1C)c(=O)n(CC(N)=O)c(=O)n2C[C@@H](OC(C)C)c1ccccc1` [I-113, ethyl 3-(carbamoylmethyl)-5-methyl-2,4-dioxo-1-[(2S)-2-phenyl-2-(propan-2-yloxy)ethyl]-1H,2H,3H,4H-thieno[2,3-d]pyrimidine-6-carboxylate], 20 to 50 µM. The result for `CCOC(=O)c1sc2c(c1C)c(=O)n(CC(C)O)c(=O)n2CCc1ccccc1` (centres unmarked) [I-62, ethyl 3-(2-hydroxypropyl)-5-methyl-2,4-dioxo-1-(2-phenylethyl)-1H,2H,3H,4H-thieno[2,3-d]pyrimidine-6-carboxylate] reads 5 to 20 µM.
